Source: patent US12152038B2, “Vasopressin receptor antagonists and products and methods related thereto” (Neumora Therapeutics, Inc., priority 2017, dated 2024)
Like-named read-outs stand apart in the source and are kept apart here.

What was measured:
[1] = Wild-type MDCK permeability and efflux assay (Papp, efflux ratio); type: in vitro ADME; conditions: dog, pH 7.4, wild-type MDCK cells; for efflux ratio at 1 h, 10 μM: Papp B>A/Papp A>B, read-out: ER WT (Efflux Ratio)
Experimental: (§1) The MDR1-MDCK effective efflux assay was performed as described in the BioFocus Standard Operating Procedure, ADME-SOP-56. Both wild-type (WT) and MDR1-MDCK cells (Solvo Biotechnology) were seeded onto 24-well Transwell plates at 2.35×10^5 cells per well and used in confluent monolayers after a 3 day culture at 37° C. under 5% CO2. For both cell types, test and control compounds (propranolol, vinblastine) were added (10 μM, 0.1% DMSO final, n=2) to donor compartments of the Transwell plate assembly in assay buffer (Hanks balanced salt solution supplemented with 25 mM HEPES, adjusted to pH 7.4) for both apical to basolateral (A>B) and basolateral to apical (B>A) measurements. Incubations were performed at 37° C., with samples removed from both donor and acceptor chambers at T=0 and 1 hour and compound analysed by mass spectrometry (LC-MS/MS) including an analytical internal standard.
(§2) Apparent permeability (Papp) values were determined from the relationship: Papp=[CompoundAcceptor T=end]×V Acceptor/([Compound Donor T=0]×V Donor)/incubation time×V Donor/Area×60×10^−6 cm/s
(§3) In this equation, V is the volume of each Transwell compartment (apical 125 μL, basolateral 600 μL), and concentrations are the relative MS responses for compound (normalized to internal standard) in the donor chamber before incubation and acceptor chamber at the end of the incubation, and Area is the area of cells exposed for drug transfer (0.33 cm^2).
(§4) Efflux ratios (Papp B>A/Papp A>B) were calculated for each compound from the mean Papp values in each direction for both wild-type and MDR1-MDCK cells.
(§5) In order to confirm the involvement of MDR1 in any efflux seen, an “effective efflux ratio” (EER) was calculated by comparing compound efflux ratios (ER) in the two cell types by the following equation: EER=ER(MDR1-MDCK)/ER(wild-type MDCK)
(§6) This ratio illustrates the effect of the over-expressed MDR1 normalised for the background movement of compound through the wild-type cells.
(§7) Lucifer Yellow (LY) was added to the apical buffer in all wells to assess viability of the cell layer. […] Recoveries<50% indicates compound solubility, stability or binding issues, thereby reducing the reliability of a result.
(§8) The inherent ability of a potential drug molecule to penetrate the blood brain barrier and avoid efflux by transporters expressed in the brain, can be roughly correlated with the Papp(A-B) and the efflux ratio (as defined above), respectively. A potential drug molecule with an apparent permeability<7 (10^−6 cm/sec) has low permeability (+), >7 (10^−6 cm/sec) but <10 (10^−6 cm/sec) has moderate permeability (++), >10 (10^−6 cm/sec) but <20 (10^−6 cm/sec) has good permeability (+++), and >20 (10^−6 cm/sec) is highly permeable (++++). High permeability in the WT and MDCK II cell permeability assay increases the probability of blood brain barrier penetration and access to the CNS. A potential drug molecule in the above assay system with an efflux ratio or effective efflux ratio of <1 has low probability of being an efflux substrate (++++), >1 but <2 has moderate probability of being an efflux substrate (+++), >2 but <3 has has an increased probability of being an efflux substrate (++), and >3 has a high probability of being an efflux substrate (+). If a potential drug molecule is an efflux substrate, the molecule will have a low probability of reaching exposures in the brain (site of action) that will result in efficacious levels of receptor occupancy.

MDR1 (P-glycoprotein) = target: T1, MDR1 (P-glycoprotein) (Homo sapiens, UniProt P08183); experiment: MDR1-MDCK permeability and efflux assay (Papp, efflux ratio, effective efflux ratio); type: in vitro ADME; conditions: dog; for Papp A→B at 1 h, 10 μM: pH 7.4, read-out: Papp AB MDR1
T1 construct: host or cells: MDCK (MDR1-MDCK; wild-type MDCK as comparator)
T1 sequence (P08183 whole entry): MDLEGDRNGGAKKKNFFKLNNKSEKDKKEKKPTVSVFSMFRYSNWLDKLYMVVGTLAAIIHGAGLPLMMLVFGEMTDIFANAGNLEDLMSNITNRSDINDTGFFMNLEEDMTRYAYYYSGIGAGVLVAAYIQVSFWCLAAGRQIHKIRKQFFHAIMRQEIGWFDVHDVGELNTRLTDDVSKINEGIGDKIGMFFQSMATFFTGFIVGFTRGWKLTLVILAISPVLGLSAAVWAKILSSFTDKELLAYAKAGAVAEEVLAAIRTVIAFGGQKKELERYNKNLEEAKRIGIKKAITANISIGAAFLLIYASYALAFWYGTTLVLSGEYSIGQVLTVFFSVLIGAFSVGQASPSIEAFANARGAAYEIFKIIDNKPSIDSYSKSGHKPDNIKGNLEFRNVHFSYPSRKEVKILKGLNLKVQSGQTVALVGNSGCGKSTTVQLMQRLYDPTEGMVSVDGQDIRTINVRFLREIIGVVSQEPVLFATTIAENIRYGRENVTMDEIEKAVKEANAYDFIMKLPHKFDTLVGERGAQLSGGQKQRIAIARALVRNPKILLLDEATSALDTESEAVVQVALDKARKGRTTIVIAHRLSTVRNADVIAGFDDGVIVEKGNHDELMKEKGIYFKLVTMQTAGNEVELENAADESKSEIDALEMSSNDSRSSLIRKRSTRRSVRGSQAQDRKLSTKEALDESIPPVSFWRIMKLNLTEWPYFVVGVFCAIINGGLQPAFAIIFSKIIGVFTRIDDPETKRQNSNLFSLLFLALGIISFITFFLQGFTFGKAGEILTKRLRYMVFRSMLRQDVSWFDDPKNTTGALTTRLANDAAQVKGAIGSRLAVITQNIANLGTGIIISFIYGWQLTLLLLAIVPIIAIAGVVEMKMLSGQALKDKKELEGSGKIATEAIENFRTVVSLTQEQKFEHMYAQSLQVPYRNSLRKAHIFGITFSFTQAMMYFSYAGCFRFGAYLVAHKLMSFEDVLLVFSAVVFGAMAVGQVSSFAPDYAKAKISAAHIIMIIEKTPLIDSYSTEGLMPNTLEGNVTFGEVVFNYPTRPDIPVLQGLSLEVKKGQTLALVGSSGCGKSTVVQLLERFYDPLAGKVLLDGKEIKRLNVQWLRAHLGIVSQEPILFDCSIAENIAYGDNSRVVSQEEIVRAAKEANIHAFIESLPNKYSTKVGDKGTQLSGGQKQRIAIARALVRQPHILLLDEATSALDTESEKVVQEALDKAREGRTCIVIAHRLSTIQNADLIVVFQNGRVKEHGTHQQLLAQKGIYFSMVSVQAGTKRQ
Experimental: as §1, §2, §3, §4, §5, §6, §7, §8

[2] = target: T2, human Arginine Vasopressin Receptor 1a (AVPR1a) (Homo sapiens, UniProt P37288); experiment: Vasopressin V1a receptor antagonist assay (FLIPR calcium, CHO-AVPR1a cells); type: cell-based
T2 construct: expressed in transfected cells; host or cells: CHO (CHO-AVPR1a, kept under G418 selection)
T2 sequence (P37288 whole entry): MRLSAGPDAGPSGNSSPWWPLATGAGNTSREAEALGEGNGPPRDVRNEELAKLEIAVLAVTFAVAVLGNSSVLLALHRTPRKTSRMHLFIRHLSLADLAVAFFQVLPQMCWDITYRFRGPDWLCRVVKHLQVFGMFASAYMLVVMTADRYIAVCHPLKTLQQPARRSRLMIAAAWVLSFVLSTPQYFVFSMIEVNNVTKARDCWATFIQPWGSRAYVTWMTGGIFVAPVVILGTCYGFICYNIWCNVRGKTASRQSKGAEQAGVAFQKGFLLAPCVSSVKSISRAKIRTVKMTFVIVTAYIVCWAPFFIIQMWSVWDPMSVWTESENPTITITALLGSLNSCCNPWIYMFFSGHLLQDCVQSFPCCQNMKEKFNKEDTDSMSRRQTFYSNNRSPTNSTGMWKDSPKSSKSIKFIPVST
Experimental: (§9) The purpose of this assay was to determine the inhibitory effect of synthesized compounds on the Vasopressin V1a receptor. The assay was performed in Chinese Hamster Ovary (CHO) cells expressing the human Arginine Vasopressin Receptor 1a (AVPR1a). Arginine Vasopressin (AVP) evokes an increase in intracellular calcium in CHO-AVPR1a cells which is measured in a fluorescence assay on the FLIPR^TETRA using calcium sensitive dyes. Test compounds were assessed for their ability to affect the magnitude of the response to AVP, with antagonists showing a concentration-dependent reduction in the AVP-mediated fluorescence. Compounds were tested in duplicate in a 10-point, 1:3 dilution series starting at a nominal concentration of 3 μM in the assay.
CHO-AVPR1a cells were maintained in routine culture in T175 Flasks at 37° C., 5% CO2. The growth medium consists of Ham's F12 media supplemented with 10% v/v fetal bovine serum, 1× non-essential amino acids, and 0.4 mg/ml Geneticin G418.
(§10) On day one, cells were harvested from T175 flasks when they are 80-90% confluent by first washing the cell monolayer with PBS and then dissociated using trypsin 0.05%/EDTA (3 mL for a T175 Flask). The flasks were incubated at room temperature until the cells detached. To the cell suspension, 10 ml of growth media was added and the cell density determined using the Vi-Cell automated cell counter. The cells were spun at 1000 rpm for 3 minutes, then the supernatant was carefully removed and discarded. The cell pellet was re-suspended at 6.0e^5 cells/ml in growth media. 25 μL of cells in growth media was dispensed into each well (15,000 cells per well) of a poly-D-lysine coated black, clear bottomed, 384-well plate. The plates were incubated at 37° C., 5% CO2 overnight.
(§11) At the start of each assay day, the potency of AVP was assessed and an EC80 concentration determined for subsequent compound profiling. Assays were performed using a two-step addition protocol on the FLIPR^TETRA; first addition of 5 μl of control or test compound at 10× final in assay buffer with 15 min incubation at 37° C., 5% CO2 followed by 10 μl of AVP at 6× final concentration in assay buffer. Changes in fluorescence were monitored for 3 min after both additions on the FLIPR^TETRA using 470-495 nm excitation and 515-575 nm emission wavelengths. The assay buffer consisted of HBSS (+Ca/+Mg) supplemented with 20 mM HEPES, and for the preparation of the AVP agonist only, 0.1% w/v bovine serum albumin. The assay was initiated by the removal of growth media from the cells and replacement with 45 μl of Calcium-6 dye (Molecular Devices) prepared at 1× in assay buffer. Cells were loaded with dye for 60-90 min at 37° C., 5% CO2 before initiation of the FLIPR^TETRA protocol. […] For compound profiling, test compounds were first serially diluted in DMSO (10-point curve, 1:3 dilutions) then diluted 33.3-fold in assay buffer prior to addition to the dye loaded cells on the FLIPR^TETRA. At the end of the incubation period, 10 μl of AVP in assay buffer containing 0.1% BSA was added at the previously determined EC80 concentration.
In-plate controls for the assay included balovaptan and PF-184563 concentration-response curves as reference V1a antagonists, and an AVP concentration-response curve to confirm the reproducibility of the EC80 used for the compound challenge.

[3] = target: T3, human Arginine Vasopressin Receptor 1b (AVPR1b) (Homo sapiens, UniProt P47901); experiment: Vasopressin V1b receptor antagonist assay (FLIPR calcium, CHO-AVPR1b cells); type: cell-based
T3 construct: expressed in transfected cells; host or cells: CHO (CHO-AVPR1b, kept under G418 selection)
T3 sequence (P47901 1-424): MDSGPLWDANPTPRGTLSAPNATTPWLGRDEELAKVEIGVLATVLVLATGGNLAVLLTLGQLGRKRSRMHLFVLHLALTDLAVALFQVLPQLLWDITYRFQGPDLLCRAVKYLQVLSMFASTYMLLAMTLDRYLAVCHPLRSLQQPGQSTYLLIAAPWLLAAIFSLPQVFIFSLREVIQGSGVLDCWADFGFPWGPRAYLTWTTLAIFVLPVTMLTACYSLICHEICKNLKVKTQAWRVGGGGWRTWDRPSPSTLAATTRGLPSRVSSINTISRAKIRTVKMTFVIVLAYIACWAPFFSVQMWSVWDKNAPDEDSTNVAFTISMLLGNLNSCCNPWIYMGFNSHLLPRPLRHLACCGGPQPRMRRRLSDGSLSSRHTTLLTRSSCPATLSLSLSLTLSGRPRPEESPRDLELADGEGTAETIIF
Experimental: as §9, with “the” for “this”, “V1b” for “V1a”, “1b (AVPR1b).” for “1a (AVPR1a).”, “CHO-AVPR1b” for “CHO-AVPR1a”, “fluorescence.” for “fluorescence. Compounds were tested in duplicate in a 10-point, 1:3 dilution series starting at a nominal concentration of 3 μM in the assay.”
CHO-AVPR1b cells were maintained in routine culture in T175 Flasks at 37° C., 5% CO2. The growth medium consisted of Ham's F12 media supplemented with 10% v/v fetal bovine serum, 1× non-essential amino acids, and 0.4 mg/ml Geneticin G418.
as §10, with “Cells were” for “On day one, cells were”, “they were” for “they are”
as §11, with “period” for “period,”
In-plate controls for the assay included a Nelivaptan concentration-response curve as the reference V1b antagonist and an AVP concentration-response curve to confirm the reproducibility of the EC80 used for the compound challenge.

[4] = MDCK-MDR1, pH 7.4, ER(MDR1-MDCK)/ER(wild-type MDCK), read-out: EER (Effective Efflux Ratio)
[5] = MDCK-MDR1, pH 7.4, Papp B>A/Papp A>B, MDR1-MDCK cells, read-out: ER MDR1 (Efflux Ratio)

Compound	Papp A→B at 1 h, 10 μM [1]	efflux ratio at 1 h, 10 μM [1]	efflux ratio at 1 h, 10 μM (MDR1 (P-glycoprotein); [4])	efflux ratio at 1 h, 10 μM (MDR1 (P-glycoprotein); [5])	Papp A→B at 1 h, 10 μM (MDR1 (P-glycoprotein); MDR1-MDCK cells)	IC50 [2]	IC50 [3]
CC1COc2cc(F)ccc2N1C(=O)N1CC2(C1)CN(c1ccc(F)cn1)C2 (single isomer, unassigned) [12-1-A]	> 20 ×10⁻⁶ cm/s	< 1	1 to 2	< 1	> 20 ×10⁻⁶ cm/s	≥ 1000 nM	
O=C(N1CC2(C1)CN(c1cnccn1)C2)N1CCC(O)c2cc(Cl)ccc21 (single isomer, unassigned) [13-3-B]	> 20 ×10⁻⁶ cm/s	1 to 2	> 3	> 3	> 20 ×10⁻⁶ cm/s	< 100 nM	
CC1COc2cc(Cl)ccc2N1C(=O)N1CC2(C1)CN(c1cc(C#N)ccn1)C2 (single isomer, unassigned) [20-6-A]	> 20 ×10⁻⁶ cm/s	< 1	1 to 2	< 1	> 20 ×10⁻⁶ cm/s	≥ 1000 nM	
O=C(N1CC2(C1)CN(c1ncccc1F)C2)N1CCOc2cc(Cl)ccc21 [1-1, (7-chloro-2,3-dihydro-4H-benzo[b][1,4]oxazin-4-yl)(6-(3-fluoropyridin-2-yl)-2,6-diazaspiro[3.3]heptan-2-yl)methanone]						< 100 nM	≥ 1000 nM
COC1CCN(C(=O)N2CC3(C2)CN(c2ccc(F)cn2)C3)c2ccc(Cl)cc21 (centres unmarked) [16-1, (6-chloro-4-methoxy-3,4-dihydroquinolin-1(2H)-yl)(6-(5-fluoropyridin-2-yl)-2,6-diazaspiro[3.3]heptan-2-yl)methanone]						< 100 nM	
CC1COc2cc(Cl)ccc2N1C(=O)N1CC2(C1)CN(c1ncc(F)cn1)C2 (centres unmarked) [18-2]						< 100 nM	
Cc1ccnc(N2CC3(CN(C(=O)N4c5ccc(F)cc5OCC4C)C3)C2)c1 (centres unmarked) [20-4]						< 100 nM	
Cc1cnc(N2CC3(CN(C(=O)N4c5ccc(Cl)cc5OCC4C)C3)C2)cn1 (centres unmarked) [20-5]						< 100 nM	
CC1COc2cc(Cl)ccc2N1C(=O)N1CC2(C1)CN(c1cc(=O)n(C)cn1)C2 (centres unmarked) [20-14]						100 to 500 nM	
CC1COc2cc(Cl)ccc2N1C(=O)N1CC2(C1)CN(c1ncc(C3CC3)cn1)C2 (centres unmarked) [21-7]						100 to 500 nM	
